ChEMBL document CHEMBL2074156, “Inhibition of P-glycoprotein activity and reversal of multidrug resistance in vitro by rosemary extract” (Eur J Cancer, 1999)

Target: ATP-dependent translocase ABCB1 (Homo sapiens, UniProt P08183)
Assay: TP_TRANSPORTER: inhibition of Doxorubicin and Vinblastine efflux in drug-resistant MCF-7 cells
Assay type: functional, cell-based
Settings: mcf7

Chain of ATP-dependent translocase ABCB1 (P08183 whole entry): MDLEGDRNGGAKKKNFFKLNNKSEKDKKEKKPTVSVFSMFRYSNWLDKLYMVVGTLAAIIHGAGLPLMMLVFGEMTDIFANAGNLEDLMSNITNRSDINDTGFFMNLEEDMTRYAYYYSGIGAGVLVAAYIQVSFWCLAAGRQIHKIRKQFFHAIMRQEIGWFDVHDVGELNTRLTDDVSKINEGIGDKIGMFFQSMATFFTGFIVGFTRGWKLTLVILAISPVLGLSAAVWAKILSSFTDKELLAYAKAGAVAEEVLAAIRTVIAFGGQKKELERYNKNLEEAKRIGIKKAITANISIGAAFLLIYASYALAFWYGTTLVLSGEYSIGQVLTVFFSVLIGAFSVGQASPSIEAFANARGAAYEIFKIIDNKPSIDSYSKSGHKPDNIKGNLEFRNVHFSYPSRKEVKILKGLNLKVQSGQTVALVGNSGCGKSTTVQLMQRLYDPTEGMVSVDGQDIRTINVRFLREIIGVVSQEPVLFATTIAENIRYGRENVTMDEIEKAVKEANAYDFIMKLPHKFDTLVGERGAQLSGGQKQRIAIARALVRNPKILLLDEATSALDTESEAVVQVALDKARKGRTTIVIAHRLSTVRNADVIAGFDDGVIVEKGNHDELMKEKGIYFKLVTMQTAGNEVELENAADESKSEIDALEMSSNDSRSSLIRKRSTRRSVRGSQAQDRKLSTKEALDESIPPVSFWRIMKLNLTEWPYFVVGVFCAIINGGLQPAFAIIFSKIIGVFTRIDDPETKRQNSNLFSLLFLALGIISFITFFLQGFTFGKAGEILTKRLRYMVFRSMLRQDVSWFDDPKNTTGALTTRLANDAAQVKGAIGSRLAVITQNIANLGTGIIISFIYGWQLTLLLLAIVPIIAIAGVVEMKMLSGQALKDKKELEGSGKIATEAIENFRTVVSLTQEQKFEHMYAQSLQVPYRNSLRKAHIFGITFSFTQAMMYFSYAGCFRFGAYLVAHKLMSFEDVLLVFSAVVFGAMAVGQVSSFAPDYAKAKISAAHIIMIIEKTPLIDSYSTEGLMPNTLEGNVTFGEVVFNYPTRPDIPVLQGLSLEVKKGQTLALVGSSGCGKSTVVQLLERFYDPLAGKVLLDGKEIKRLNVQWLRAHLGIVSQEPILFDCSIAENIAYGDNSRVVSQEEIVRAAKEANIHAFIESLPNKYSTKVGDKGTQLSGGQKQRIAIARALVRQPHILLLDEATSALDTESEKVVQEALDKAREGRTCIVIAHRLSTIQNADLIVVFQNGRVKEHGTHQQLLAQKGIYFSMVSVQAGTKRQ

ROSEMARY EXTRACT
Activity: inhibitor [+]
